From patent US4731486A, “Hydroformylation using low volatile phosphine ligands” (Union Carbide Corporation, priority 1986, dated 1988)
Counter-ions that a name gives are not always drawn.

Tests used:
[1] = Solubility of metal salt ligands in different aldehydes; format: physicochemical
[2] = Solubility of metal salt ligands in nonanal with added solubilizing agent; format: physicochemical; details: 25° C., nonanal with 1:4 CARBOWAX TPEG-900/TERGITOL NP-9
[3] = Batch hydroformylation of dodecene-1 (Examples 13, 14, 18, 19); details: heptanal, 100° C., 200 ppm Rh, 60 psia 2:1 H2:CO
[4] = Batch hydroformylation of propylene in stirred autoclave (Examples 1, 2, 11, 14, 19); details: 200 ppm Rh, about 120 mole equivalents ligand, 100° C., 90 psia 1:1:1 H2:CO:C3H6; for Linear/Branched Aldehyde Mole Ratio: Texanol/Carbowax PEG-600: Li 100:0, K 9:1, Rb 8:1, Ca 20:1, Ba 7:1; for Reaction Rate (C4 aldehydes): Texanol/Carbowax PEG-600: Li 100:0, K 9:1, Rb 8:1, Cs 7:1, Ca 20:1, Ba 7:1, Sr 18:1
Method: A series of various rhodium complex catalyst precursor solutions consisting essentially of the solubilized reaction product of rhodium dicarbonyl acetylacetonate and various monosulfonated triphenylphosphine metal salt ligands were prepared and employed to hydroformylate propylene into C4 aldehydes in the following manner.
Each rhodium catalytic precursor solution so prepared was then employed to hydroformylate propylene in a magnetically stirred, 100 mL capacity, stainless steel autoclave which was attached to a gas manifold for introducing gases to the desired partial pressures. The autoclave was also equipped with a pressure calibrator for determining reaction pressure to ±0.01 psia. and a platinum resistance thermometer for determining reactor solution temperatures to ±0.10° C. The reactor was heated externally by two 300 watt heating bands. The reactor solution temperature was controlled by a platinum resistance sensor connected to an external proportional temperature controller for controlling the temperature of the external band heaters.
In each non-aqueous hydroformylation reaction, about 15 milliliters (about 14 grams) of the rhodium catalytic precursor solution so prepared was charged to the autoclave reactor under nitrogen and heated to the reaction temperature employed (as given in Table 1 below). The reactor was then vented down to 5 psig. and a premixed gas mixture of 1:1:1 carbon monoxide:hydrogen:propylene was introduced into the reactor via the gas manifold (partial pressures given in Table 1) and the propylene so hydroformylated.
A comparison of the catalytic activity of aqueous and non-aqueous solutions of monosulfonated triphenylphosphine sodium salt ligand promoted catalysts in hydroformylating various molecular weight alphe-olefins was determined as follows.
Both the aqueous and non-aqueous hydroformylation reactions were conducted under identical conditions with regard to temperature, rhodium and ligand concentration, hydrogen and carbon monoxide partial pressure and olefin concentration.

[5] = Continuous single pass hydroformylation of butene-1 (Examples 3, 4, 5, 7, 12)
Method: Continuous hydroformylation of butene-1 a monosulfonated triphenylphosphine metal salt ligand was conducted in the following manner.
The non-aqueous hydroformylation was conducted in a glass reactor operating in a continuous single pass butene-1 hydroformylation mode. The reactor consisted of a three-ounce pressure bottle submersed in an oil bath with a lass front for viewing. About 20-mL of a freshly prepared rhodium catalytic precursor solution was charged to the reactor with a syringe, after purging the system with nitrogen. […] After closing the reactor, the system was again purged with nitrogen and the oil bath was heated to furnish the desired hydroformylation reaction temperature. The hydroformylation reaction was conducted at a total gas pressure of about 160 psig., the partial pressures of hydrogen, carbon monoxide, and butene-1 being given in Table 3 below, the remainder being nitrogen and aldehyde product.
The flows of the feed gases (carbon monoxide, hydrogen, butene-1 and nitrogen) were controlled individually with mass flow meters and the feed gases dispersed into the precursor solution via microporous stainless steel spargers. The unreacted portion of the feed gases was stripped out with the product C5 aldehydes and the outlet gas analyzed over about 12 days of continuous operation.

[6] = Continuous hydroformylation of propylene (Example 8); details: Texanol/PEG-600 8:1
[7] = CARBOWAX PEG-600, two liquid organic layers
[8] = TERGITOL 15-S-7/Carbowax TPEG-990 (3:1)
[9] = TERGITOL 24-L-75N/CARBOWAX TPEG-990 (4:1)
[10] = Texanol/PEG-600 7:1, day 1.0, 101 °C, CO 18, H2 70, C4H8 11 psia
[11] = Texanol/PEG-600 7:1, day 1.8, 101 °C, CO 16, H2 62, C4H8 14 psia
[12] = Texanol/PEG-600 7:1, day 5.0, 101 °C, CO 12, H2 66, C4H8 19 psia
[13] = Texanol/PEG-600 7:1, day 5.9, 101 °C, CO 13, H2 66, C4H8 20 psia
[14] = Texanol/PEG-600 7:1, day 6.9, 101 °C, CO 14, H2 62, C4H8 22 psia
[15] = Texanol/PEG-600 7:1, day 7.0 (so in the source), […], CO 18, H2 62, C4H8 22 psia
[16] = Texanol/PEG-600 7:1, day 7.9, 101 °C, CO 16, H2 55, C4H8 24 psia
[17] = Texanol/PEG-600 7:1, day 9.0, […], CO 18, H2 60, C4H8 23 psia
[18] = Texanol/PEG-600 7:1, day 11.0, […], CO 19, H2 63, C4H8 21 psia
[19] = Texanol/PEG-600 7:1, day 11.7, […], CO 20, H2 63, C4H8 21 psia
[20] = Texanol/PEG-600 7:1, day 12.6, 103 °C, CO 20, H2 63, C4H8 22 psia
[21] = Texanol, day 0.8, 101 °C, CO 18, H2 48, C4H8 19
[22] = Texanol, day 4.0, 101 °C, CO 17, H2 52, C4H8 49
[23] = Texanol, day 6.0, 101 °C, CO 17, H2 52, C4H8 50
[24] = Texanol, day 6.9, 101 °C, CO 19, H2 50, C4H8 41
[25] = Texanol, day 8.0, […], CO 18, H2 56, C4H8 38
[26] = Texanol, day 9.0, […], CO 18, H2 57, C4H8 38
[27] = Texanol, day 10.0, […], CO 18, H2 57, C4H8 38
[28] = Texanol, day 10.7, […], CO 18, H2 57, C4H8 38
[29] = Texanol, day 11.6, 103 °C, CO 18, H2 57, C4H8 38
[30] = day 1.0, 99 °C, CO 33, H2 53, C3H6 17 psia
[31] = day 2.0, 106 °C, CO 28, H2 54, C3H6 18 psia
[32] = day 3.0, […], CO 23, H2 55, C3H6 19 psia
[33] = day 4.0, […], CO 23, H2 55, C3H6 19 psia
[34] = day 4.9, 104 °C, CO 23, H2 55, C3H6 19 psia
[35] = day 5.8, 103 °C, CO 23, H2 55, C3H6 20 psia
[36] = day 6.7, 98 °C, CO 24, H2 56, C3H6 20 psia

## O=S(=O)(O)c1cccc(P(c2ccccc2)c2ccccc2)c1 [TPPMS-Ba, monosulfonated triphenylphosphine barium salt]
[1]; Butyraldehyde, 60 °C
  Metal Salt Solubility: 0.6 Wt. %
[1]; Heptanal, 80 °C
  Metal Salt Solubility: 0.2 Wt. %
[1]; Nonanal, 80 °C
  Metal Salt Solubility: 0.2 Wt. %
[1]; Propionaldehyde, 35 °C
  Metal Salt Solubility: 0.5 Wt. %
[1]; Tridecanal, 80 °C
  Metal Salt Solubility: 0.3 Wt. %
[1]; Valeraldehyde, 80 °C
  Metal Salt Solubility: 0.1 Wt. %
[2]
  Metal Salt Solubility: 33 Wt. %
[3]; [7]
  Linear/Branched Aldehyde Mole Ratio: 10.0
  Reaction Rate: 1.22 G moles/L/hr
[3]; [8]
  Linear/Branched Aldehyde Mole Ratio: 9.4
  Reaction Rate: 0.45 G moles/L/hr
[3]; [9]
  Linear/Branched Aldehyde Mole Ratio: 10.9
  Reaction Rate: 0.76 G moles/L/hr
[4]
  Linear/Branched Aldehyde Mole Ratio: 4.1
  Reaction Rate (C4 aldehydes): 1.43 Gmoles/L/Hr
[5]; [10]
  Linear/Branched Aldehyde Mole Ratio: 6.91
  Rate (C5 aldehydes), daily average: 2.07 gmoles/L/Hr
[5]; [11]
  Linear/Branched Aldehyde Mole Ratio: 7.10
  Rate (C5 aldehydes), daily average: 2.10 gmoles/L/Hr
[5]; [12]
  Linear/Branched Aldehyde Mole Ratio: 7.12
  Rate (C5 aldehydes), daily average: 2.51 gmoles/L/Hr
[5]; [13]
  Linear/Branched Aldehyde Mole Ratio: 7.03
  Rate (C5 aldehydes), daily average: 2.52 gmoles/L/Hr
[5]; [14]
  Linear/Branched Aldehyde Mole Ratio: 6.32
  Rate (C5 aldehydes), daily average: 2.71 gmoles/L/Hr
[5]; [15]
  Linear/Branched Aldehyde Mole Ratio: 6.02
  Rate (C5 aldehydes), daily average: 2.60 gmoles/L/Hr
[5]; [16]
  Linear/Branched Aldehyde Mole Ratio: 6.16
  Rate (C5 aldehydes), daily average: 2.71 gmoles/L/Hr
[5]; [17]
  Linear/Branched Aldehyde Mole Ratio: 6.01
  Rate (C5 aldehydes), daily average: 2.73 gmoles/L/Hr
[5]; [18]
  Linear/Branched Aldehyde Mole Ratio: 6.20
  Rate (C5 aldehydes), daily average: 2.46 gmoles/L/Hr
[5]; [19]
  Linear/Branched Aldehyde Mole Ratio: 6.14
  Rate (C5 aldehydes), daily average: 2.37 gmoles/L/Hr
[5]; [20]
  Linear/Branched Aldehyde Mole Ratio: 5.85
  Rate (C5 aldehydes), daily average: 2.30 gmoles/L/Hr

## O=S(=O)(O)c1cccc(P(c2ccccc2)c2ccccc2)c1 [TPPMS-Li, monosulfonated triphenylphosphine lithium salt]
[1]; Butyraldehyde, 60 °C, lithium salt
  Metal Salt Solubility: 0.5 Wt. %
[1]; Heptanal, 80 °C, lithium salt
  Metal Salt Solubility: < 0.7 Wt. %
[1]; Nonanal, 80 °C, lithium salt
  Metal Salt Solubility: < 0.5 Wt. %
[1]; Propionaldehyde, 35 °C, lithium salt
  Metal Salt Solubility: 8.8 Wt. %
[1]; Tridecanal, 80 °C, lithium salt
  Metal Salt Solubility: < 0.5 Wt. %
[1]; Valeraldehyde, 80 °C, lithium salt
  Metal Salt Solubility: < 0.5 Wt. %
[2]; lithium salt
  Metal Salt Solubility: 12 Wt. %
[4]; lithium salt
  Linear/Branched Aldehyde Mole Ratio: 6.3
  Reaction Rate (C4 aldehydes): 0.35 Gmoles/L/Hr
[5]; [21]
  Linear/Branched Aldehyde Mole Ratio: 30.34
  Rate (C5 aldehydes), daily average: 1.02 gmoles/L/Hr
[5]; [22]
  Linear/Branched Aldehyde Mole Ratio: 11.20
  Rate (C5 aldehydes), daily average: 1.25 gmoles/L/Hr
[5]; Texanol, day 4.8, 101 °C, CO 17, H2 52, C4H8 50
  Rate (C5 aldehydes), daily average: 1.19 gmoles/L/Hr
[5]; [23]
  Linear/Branched Aldehyde Mole Ratio: 2.98
  Rate (C5 aldehydes), daily average: 1.27 gmoles/L/Hr
[5]; [24]
  Linear/Branched Aldehyde Mole Ratio: 31.75
  Rate (C5 aldehydes), daily average: 1.28 gmoles/L/Hr
[5]; [25]
  Linear/Branched Aldehyde Mole Ratio: 40.30
  Rate (C5 aldehydes), daily average: 1.28 gmoles/L/Hr
[5]; [26]
  Linear/Branched Aldehyde Mole Ratio: 28.90
  Rate (C5 aldehydes), daily average: 1.30 gmoles/L/Hr
[5]; [27]
  Linear/Branched Aldehyde Mole Ratio: 29.63
  Rate (C5 aldehydes), daily average: 1.27 gmoles/L/Hr
[5]; [28]
  Linear/Branched Aldehyde Mole Ratio: 37.18
  Rate (C5 aldehydes), daily average: 1.27 gmoles/L/Hr
[5]; [29]
  Linear/Branched Aldehyde Mole Ratio: 30.18
  Rate (C5 aldehydes), daily average: 1.21 gmoles/L/Hr

## O=S(=O)(O)c1cccc(P(c2ccccc2)c2ccccc2)c1 [TPPMS-Rb, monosulfonated triphenylphosphine rubidium salt]
[1]; Butyraldehyde, 60 °C
  Metal Salt Solubility: 1.4 Wt. %
[1]; Heptanal, 80 °C
  Metal Salt Solubility: 3.8 Wt. %
[1]; Nonanal, 80 °C
  Metal Salt Solubility: 0.9 Wt. %
[1]; Propionaldehyde, 35 °C
  Metal Salt Solubility: 6.6 Wt. %
[1]; Tridecanal, 80 °C
  Metal Salt Solubility: 0.5 Wt. %
[1]; Valeraldehyde, 80 °C
  Metal Salt Solubility: 3.3 Wt. %
[2]
  Metal Salt Solubility: 25 Wt. %
[4]
  Linear/Branched Aldehyde Mole Ratio: 5.6
  Reaction Rate (C4 aldehydes): 0.70 Gmoles/L/Hr
[6]; [30]
  Linear/Branched Aldehyde Mole Ratio: 5.15
  Rate (C4 aldehydes), daily average: 1.01 gmoles/L/Hr
[6]; [31]
  Linear/Branched Aldehyde Mole Ratio: 6.19
  Rate (C4 aldehydes), daily average: 1.24 gmoles/L/Hr
[6]; [32]
  Linear/Branched Aldehyde Mole Ratio: 5.86
  Rate (C4 aldehydes), daily average: 0.68 gmoles/L/Hr
[6]; [33]
  Linear/Branched Aldehyde Mole Ratio: 6.04
  Rate (C4 aldehydes), daily average: 0.58 gmoles/L/Hr
[6]; [34]
  Linear/Branched Aldehyde Mole Ratio: 6.12
  Rate (C4 aldehydes), daily average: 0.58 gmoles/L/Hr
[6]; [35]
  Linear/Branched Aldehyde Mole Ratio: 6.45
  Rate (C4 aldehydes), daily average: 0.58 gmoles/L/Hr
[6]; [36]
  Linear/Branched Aldehyde Mole Ratio: 6.60
  Rate (C4 aldehydes), daily average: 0.41 gmoles/L/Hr
